Measurements as given in article PMC9733678, “Combining drug salt formation with amorphous solid dispersions – a double edged sword” (Journal of Controlled Release, 2022).

How the values were obtained:
[1] = Water sorption analysis of amorphous lumefantrine salts (DVS); type: physicochemical; details: neat amorphous salt; for weight gain (water sorption): 95% RH
Experimental: Water sorption profiles of the amorphous lumefantrine salts were measured using a DVS Adventure water vapor sorption analyzer (Surface Measurement Systems, Wembley, UK). Powdered salt (5–10 mg) was dried at 0% RH in the instrument for 120 min. After drying, the RH within the chamber was increased from 5% to 95% at a 5% step interval. The equilibrium criterion was a percent weight change over time (% dm/dt) of <0.002%/min for 10 min. Nitrogen was used as the purging gas.

[2] = Physical stability, open dish 40 °C/75% RH, monitored by PXRD; type: physicochemical; details: neat amorphous salt
Experimental: PXRD patterns of the lumefantrine salts and salt ASDs were collected using an X-ray diffractometer (Rigaku SmartLab, Rigaku Americas, The Woodlands, TX) operating at 40 kV and […] in Bragg–Brentano mode with a Cu-kα radiation source and D/tex ultra detector. Each sample was spread thinly on a glass sample holder. Data was collected from 4 to 40° 2θ using a step size of 0.02° and a scan rate of 4°/min.
To assess the physical stability of the salts and salt ASDs, the samples were stored in open dish accelerated stability conditions of 40 °C/ 75% RH. At pre-determined time intervals, the samples were removed and their PXRD patterns collected.

[3] = parameters: method as in PMID 10468018; details: amorphous salt; cited from earlier work
[4] = Thermal analysis (DSC), onset glass transition temperature; type: physicochemical; details: for Tg (glass transition temperature) of neat amorphous material: DSC
Experimental: A Q2000 differential scanning calorimeter (DSC; Q2000, TA Instruments, New Castle, DE) connected to an RCS 90 refrigerated cooling system (TA Instruments, New Castle, DE) was used to analyze the lumefantrine salts and salt ASDs. The thermal properties of lumefantrine free base, lumefantrine free base ASDs, and neat PVPVA were also analyzed. The purging gas used was dry nitrogen (50 mL/min flow rate). Temperature calibration of the DSC was performed using indium and tin, while indium was used for enthalpy calibration. Each sample (5–10 mg) was carefully weighed and sealed in a Tzero aluminum sample pan (TA Instruments, New Castle, DE). The procedure to obtain the sample Tg is as follows: equilibration at −10 °C, followed by heating with a modulation of ±0.636 °C every 40 s at 3 °C/min to the temperature of interest. The samples were then cooled to −10 °C at 10 °C/min and reheated at 5 °C/min. The first heating cycle was used to remove thermal history associated with the samples, while the second cycle was used to obtain the sample Tg.

[5] = parameters: method as in PMID 32134677; details: PVPVA ASD; cited from earlier work
[6] = parameters: method as in PMID 23763957; details: cited from earlier work
[7] = parameters: method as in PMID 24189249; details: cited from earlier work

Question: With CCCCN(CCCC)CC(O)c1cc(Cl)cc2c1-c1ccc(Cl)cc1C2=Cc1ccc(Cl)cc1.Cl (centres unmarked) [HCl salt, Lumefantrine HCl] as the molecule, how does the “weight gain (water sorption)” value [1] read?
Answer: < 2%

Question: And the “time re-crystallization was resisted” value [2]?
Answer: at least 16 weeks

Question: With COc1ccc2c(c1)c(CC(=O)[O-])c(C)n2C(=O)c1ccc(Cl)cc1.[Na+] [Na indomethacin] as the molecule, how does the “Tg higher than indomethacin free acid” value [3] read?
Answer: ~75 °C

Question: Which “weight gain (water sorption)” value [1] does the source give for CCCCN(CCCC)CC(O)c1cc(Cl)cc2c1-c1ccc(Cl)cc1/C2=C/c1ccc(Cl)cc1.O=C(O)c1ccccc1 (centres unmarked) [benzoate salt, Lumefantrine benzoate] here?
Answer: < 2%

Question: What about the “storage time at which crystalline peaks were observed” value (“storage time” for short) [2] of the same molecule?
Answer: ≤ 4 weeks

Question: What about the “elevation in Tg relative to the free base” value ([4]; neat amorphous salt) of the same molecule?
Answer: ~10 °C

Question: For CCCCN(CCCC)CC(O)c1cc(Cl)cc2c1-c1ccc(Cl)cc1C2=Cc1ccc(Cl)cc1.O=S(=O)(O)c1ccccc1 (centres unmarked) [besylate salt, Lumefantrine besylate], which “weight gain (water sorption)” value [1] is on record?
Answer: < 2%

Question: And the “storage time” value [2]?
Answer: ≤ 4 weeks

Question: Which results are given for CC1(C)[C@@H]2CC[C@@]1(CS(=O)(=O)O)C(=O)C2.CCCCN(CCCC)CC(O)c1cc(Cl)cc2c1-c1ccc(Cl)cc1/C2=C/c1ccc(Cl)cc1 (centres unmarked) [camsylate salt, Lumefantrine camsylate]?
Answer: weight gain (water sorption) [1]: < 2%; storage time at which crystalline peaks were observed [2]: 32 weeks

Question: Which “limit of congruency (LoC)” value [5] does the source give for COc1ccc2c(c1)c(CC(=O)O)c(C)n2C(=O)c1ccc(Cl)cc1 [indomethacin] here?
Answer: 10%

Question: With CCCCN(CCCC)CC(O)c1cc(Cl)cc2c1-c1ccc(Cl)cc1/C2=C/c1ccc(Cl)cc1 (centres unmarked) [lumefantrine, reference compound] as the molecule, how does the “pKa of tertiary amine” value [6] read?
Answer: 8.73

Question: What about the “log P” value [7] of the same molecule?
Answer: 8.34

Question: What about the “Tg (glass transition temperature) of neat amorphous material” value (shortened to “Tg (glass transition temperature)”) [4] of the same molecule?
Answer: 19.7 °C

Question: What about the “Tg (glass transition temperature)” value ([4]; listed as free base) of the same molecule?
Answer: 20 °C

Question: Which “weight gain (water sorption)” value [1] does the source give for CCCCN(CCCC)CC(O)c1cc(Cl)cc2c1-c1ccc(Cl)cc1/C2=C/c1ccc(Cl)cc1.CCCCN(CCCC)CC(O)c1cc(Cl)cc2c1-c1ccc(Cl)cc1/C2=C/c1ccc(Cl)cc1.O=S(=O)(O)O (centres unmarked) [sulfate salt, Lumefantrine sulfate] here?
Answer: 3.3%

Question: What about the “time re-crystallization was resisted” value [2] of the same molecule?
Answer: at least 16 weeks

Question: What about the “Tg (glass transition temperature)” value [4] of the same molecule?
Answer: 101 °C

Question: Which “weight gain (water sorption)” value [1] does the source give for CCCCN(CCCC)CC(O)c1cc(Cl)cc2c1-c1ccc(Cl)cc1C2=Cc1ccc(Cl)cc1.Cc1ccc(S(=O)(=O)O)cc1 (centres unmarked) [tosylate salt, Lumefantrine tosylate] here?
Answer: < 2%

Question: Which “appearance after exposure to 95% RH” value [1] does the source give for “Lumefantrine PEG 250 diacid [PEG 250 diacid (1:1) salt]” here?
Answer: liquified

Question: And the “increase in weight (water sorption)” value ([1]; 90% RH)?
Answer: 5.1%

Question: And the “weight gain (water sorption)” value [1]?
Answer: 6.6%

Question: For “Lumefantrine PEG 250 diacid [PEG 250 diacid (2:1) salt]”, which “storage time” value [2] is on record?
Answer: ≤ 4 weeks
